Data: patent publication US20230357275A1, “SPIRO-SULFONAMIDE DERIVATIVES AS INHIBITORS OF MYELOID CELL LEUKEMIA-1 (MCL-1) PROTEIN” (Prelude Therapeutics, Incorporated, priority 2020, published 2023)

Key:
MCL-1 = biological target: T1, MCL-1 (Homo sapiens, UniProt Q07820); test: Cell free Mcl-1:Bim affinity assay (Mcl-1 Bim), fluorescence polarization competition; type: binding; settings: 15 nM MCL-1, 5 nM FITC-Bim tracer, 1 hour at room temperature; Ki calculated from IC50 by Nikolovska-Coleska's equation; read-out: BIM_ Ki
T1 construct: purchased BPS Bioscience
Description: The binding affinity of each compound was measured via a fluorescence polarization competition assay, in which the compound competes for the same binding site with the ligand, and thus leads to a dose-dependent anisotropy reduction. The tracer ligand utilized was a fluorescein isothiocyanate labelled peptide (FITC-[…]) derived from Bim (GenScript).
The assay was carried out in black half-area 96-well NBS plate (Coming), containing 15 nM of MCL-1 (BPS Bioscience), 5 nM of FITC-Bim and 3-fold serial diluted test compounds in a total volume of 50 µL of assay buffer (20 mM HEPES, 50 mM NaCl, 0.002% Tween 20, 1 mM TCEP, and 1% DMSO). The reaction plate was incubated for 1 hour at room temperature. The change of anisotropy is measured with an Envision multimode plate reader (PerkinElmer) at emission wavelength 535 nm. Fluorescence polarization was calculated in mP unit and the percentage inhibition was calculated by % inhibition = 100x(mPDMSO-mP)/(mPDMSO-mPPC), in which mPDMSO is the DMSO control, and mPPC is the positive control. IC50 values were determined from a 10-point dose response curve by fitting the percent inhibition against compound concentration using the GraphPad Prism software. The inhibition constant Ki was subsequently calculated according to the Nikolovska-Coleska’s equation (Anal. Biochem., 2004, 332, 261), […]

H929 cells = test: Cell viability assay (H929 10 FBS); type: cell-based; settings: Homo sapiens, NCI-H929, 24 hours, CellTiTer-Glo or ATPlite, read-out: H929_10FB S IC50
Description: Dispense 10 µL aliquot of prepared H929 cells (1:1 ratio of cells:Trypan Blue (#1450013, Bio-Rad)) onto cell counting slide (#145-0011, Bio-Rad) and obtain cell density and cell viability using cell counter (TC20, Bio-Rad). Remove appropriate volume of resuspended cells from culture flask to accommodate 4000 cells/well @ 10 µL/well. Transfer H929 cells to 50 mL conical (#430290, Corning). Spin down at 1000 rpm for 5 min using tabletop centrifuge (SPINCHRON 15, Beckman). Discard supernatant and resuspend cell pellet in modified RPMI 1640 (#10-040-CV, Coming) cell culture media containing 10% FBS (F2422-500 ML, Sigma), sodium pyruvate (100 mM) (#25-000-CL, Corning), HEPES buffer (1 M) (#25-060-CL, Coming) and glucose (200 g/L) (A24940-01, Gibco) to a cell density of 400,000 cells/mL. Dispense 10 µL of resuspended H929 cells per well in 384-well small volume TC treated plate (#784080, Greiner Bio-one) using standard cassette (#50950372, Thermo Scientific) on Multi-drop Combi (#5840310, Thermo Scientific) in laminar flow cabinet. Dispense compounds onto plates using digital liquid dispenser (D300E, Tecan). Incubate plates in humidified tissue culture incubator @ 37° C. for 24 hours. […] Read plates with microplate reader (PheraStar, BMG Labtech) using 384 well luminescence mode.

T1 sequence (Q07820 whole entry): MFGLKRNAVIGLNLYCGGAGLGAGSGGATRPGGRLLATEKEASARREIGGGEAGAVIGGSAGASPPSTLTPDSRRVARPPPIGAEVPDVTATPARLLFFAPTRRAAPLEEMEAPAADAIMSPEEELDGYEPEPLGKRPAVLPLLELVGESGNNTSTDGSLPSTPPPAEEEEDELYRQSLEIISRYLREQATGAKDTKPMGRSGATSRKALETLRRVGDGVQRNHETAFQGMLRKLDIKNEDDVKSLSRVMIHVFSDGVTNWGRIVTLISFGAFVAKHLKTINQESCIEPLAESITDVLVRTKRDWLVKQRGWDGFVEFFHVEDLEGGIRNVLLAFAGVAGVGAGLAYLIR

Molecule `CN(C)C(=O)O[C@H]1/C=C/COC(C)(C)C(=O)NS(=O)(=O)c2ccc3c(c2)N(C[C@@H]2CC[C@H]21)C[C@@]1(CCCc2cc(Cl)ccc21)CO3` [Example 34, [(3R,6R,7S,8E,22S)-6′-Chloro-12,12-dimethyl-13,15,15-trioxo-spiro [11,20-dioxa-15-thia-1,14-diazatetracyclo[14.7.2.03,6.019,24]pentacosa-8,16,18,24-tetraene-22,1′-tetralin]-7-yl] N,N-dimethylcarbamate] has a Ki (MCL-1) of under 0.001 µM and an IC50 (H929 cells) of under 0.5 µM.
